This is an account of results in paper PMC8025909, “Repurposing of Sitagliptin- Melittin Optimized Nanoformula against SARS-CoV-2; Antiviral Screening and Molecular Docking Studies” (Pharmaceutics, 2021).

In the experiment the target is T1, SARS-CoV-2 3CL Protease (3C-like protease, Mpro, 3CLpro) (Severe acute respiratory syndrome coronavirus 2, UniProt P0DTD1).
T1 construct: gene rep; full-length mature nsp5 a.a; supplier apparently BPS Bioscience
In words: biochemical.

On to `N[C@@H](CC(=O)N1CCn2c(nnc2C(F)(F)F)C1)Cc1cc(F)c(F)cc1F` [sitagliptin], for which the half-maximal inhibitory concentration (IC50) came out at 6.914 ± 0.034 µM.
